SMILES strings stand for the structures.

These results are taken from patent publication US7160894B2, “Tricyclic compound” (Asahi Kasei Pharma Corporation, priority 2003, dated 2007).

In assay [1] the test system is ovalbumin-induced constriction of respiratory tract. The experiment in a line: Respiratory tract constriction suppressing action, administration by inhalation (Test Example 3). It is filed as in vivo, Hartley guinea pigs. Particulars: ovalbumin-immunized guinea pigs, 2 ml solution by inhalation over 5 minutes. On the procedure:
Four-week old Hartley guinea pigs (male) were immunized by intraperitoneal administration of ovalbumin (Sigma, Grade V) in amounts of 1 mg for each animal on the day on which the experiment was started, 3 mg for each animal after 2 days, and 10 mg for each animal after 4 days. Further, the respiratory tract constriction suppression action of the test compounds was also evaluated by inhalation. Twelve to fourteen days after the final sensitization, 10 mg/kg of pyrilamine (Sigma), 5 mg/kg of indomethacin (Wako), or 0.1 mg/kg of propranolol (Sigma) was intraperitoneally administered. Then, 30 minutes after the administration, a 0.1% ovalbumin aqueous solution was inhaled by using a pressurization type nebulizer (PARI-IS2) to induce constriction of the respiratory tract. Ten minutes after the induction, 2 ml of a solution of a test compound prepared at various concentrations was filled in the aforementioned nebulizer, and administered by inhalation over 5 minutes. After the administration of pyrilamine and other drugs, airway resistance value was continuously measured to determine effectiveness.

For assay [2] the test system is unchanged. The assay is described as follows: Respiratory tract constriction suppressing action, intravenous administration (Test Example 3). The note with it: ovalbumin-immunized guinea pigs, administered from cannula in hind leg vein, measured for 15 minutes. It is filed as in vivo, Hartley guinea pigs. The procedure: Four-week old Hartley guinea pigs (male) were immunized by intraperitoneal administration of ovalbumin (Sigma, Grade V) in amounts of 1 mg for each animal on the day on which the experiment was started, 3 mg for each animal after 2 days, and 10 mg for each animal after 4 days. Twelve to fourteen days after the final immunization, the ovalbumin-immunized guinea pigs were anesthetized by intraperitoneal administration of about 40 mg/kg of pentobarbital (Somnopentyl), and the tracheas were taken out. Subsequently, a cannula (SP-110, Natsume) was inserted into each trachea, and one end of the cannula was connected to an artificial respirator (Model-b83, Harvard). The aeration conditions were set at 6 ml per kilogram and 60 times per 1 minute. Further, a cannula for medicament administration (JMS wing needle 23G 3/4) was inserted into a hind leg vein. Myoblock (Organon Technica) was administered in an amount of 0.5 mg/kg from the cannula inserted into the hind leg vein to stop the spontaneous breathing, and after 2 or 3 minutes, 0.3 mg/kg of ovalbumin was administered to induce constriction of respiratory tract. The increase of airway resistance value 2 minutes after the induction (measurement apparatuses: pressure transducer TR-603T, respiratory amplifier AR-601G, and recorder RTA-3100, Nihon Kohden Corp.) was confirmed to be above 80 cm H2O or higher, and then, a solution of a test medicament was administered from the cannula inserted into the hind leg vein, and the airway resistance value was continuously measured for 15 minutes after the administration to determine the effect.

The next assay concerns intraocular pressure. The assay is described as follows: Intraocular pressure reducing action (Test Example 4). It is filed as in vivo, Japanese white rabbit. The note with it: rabbit, 50 μl of aqueous solution dropped to the left eye. The procedure: A Japanese white rabbit having a body weight of about 2 kg was placed in a positioner and naturalized for one week before the experiment. An ophthalmologic local anesthesant (Benoxil) was administered to the left eye, and then intraocular pressure was measured by using a tonometer (Classic 30, Solan). The initial value of the intraocular pressure was measured, then 50 μl of an aqueous solution of a test compound was dropped to the left eye at various concentrations, and the intraocular pressure was measured with passage of time.

Assay [3] has as its system lipopolysaccharide-induced pulmonary inflammation. The experiment in a line: Pulmonary inflammation suppressing action, LPS-induced (Test Example 8). It is filed as in vivo, BALB/c female mice. The note with it: mice, LPS inhalation, test compound by inhalation over 10 minutes, 3 hours after administration. The text has this: According to Gonzales de Moraes, V L., et al., Br. J. Pharmacol., 123, pp. 631–6, 1998, suppressing action on pulmonary inflammation was studied. BALB/c female mice (7-week old) were used for the test, as the compound administration group and positive control group, each consisting of 7 mice, as well as the negative control group consisting of 5 mice. For induction of inflammation, a 0.03% physiological saline solution of a lipopolysaccharide (LPS, a mixture derived from Escherichia coli O55 and B5 strains, Sigma) was used. A test compound was dissolved in physiological saline to prepare solutions of various concentrations. The test animals were first inhaled with the aforementioned lipopolysaccharide solution for 10 minutes by using a pressurization type nebulizer (PARI-IS2) to induce inflammation. Then, 1 minute after the completion of the inhalation of the lipopolysaccharide solution, the animals were administered with a solution of test compound at various concentrations over 10 minutes by inhalation using the aforementioned nebulizer. The mice of the positive control group were administered with the same volume of physiological saline instead of the test compound solution over 10 minutes by inhalation. Three hours after the administration of the test compound, pulmonary cavities of the test animals were washed with physiological saline, and the total infiltrated leucocyte (WBC) number was counted.

Assay [4] has as its system thoracic aorta constricted with phenylephrine. The assay is described as follows: Vasoconstriction inhibitory action (Test Example 2). Also on record: species or system Rats (Wistar). Particulars: test compound 1 μM; rat thoracic aorta constricted with phenylephrine 1 μM. The source says:
Rats (Wistar, 11-week old) were bleeded to death and laparotomized to take out the thoracic aorta. That aorta was cut into a ring of a length of about 3 mm in a conventional manner (Asano, T., et al., J. Pharmacol. Exp. Ther., 241, pp. 1033–1040 (1987)) and hung in 10-ml organ bath filled with Krebs-Hensright nutrient solution bubbled with a mixed gas of 95% O2 and 5% CO2. One end of the blood vessel was connected to an isometric transducer (FD Pickup TB-912T, Nihon Kohden) and applied with 2.5 g of resting tension, and constriction and relaxation reactions of the aorta were recorded.
The aorta was constricted with phenylephrine (1 μM, Sigma) and then added with a test compound (1 μM), and the vasoconstriction inhibitory action thereof was observed. The vasoconstriction inhibitory actions of the test compounds were calculated as relaxation ratios, which were based on the vasoconstriction with phenylephrine observed immediately before the addition of the test compounds taken as 100%.

Assay [5] concerns cerebral hippocampal neurons. The experiment in a line: Neurite outgrowth action (Test Example 5). The note with it: rat hippocampal neurons, 24 hours after addition. It is filed as cell-based, Sprague-Dawley rats. On the procedure:
From 18 day-old Sprague-Dawley rats, cerebral hippocampal neurons were prepared according to the method of Neuman et al. (Neuman, H. R. et al., J. Neurosci., 22, pp. 854–862, 2002). The prepared neurons were cultured for 24 hours according to the method of Tanaka et al. (Tanaka, H. et al., J. Cell Biol., 158 (2), pp. 321–329, 2002), then the medium was exchanged with fresh medium, and test medicaments of various concentrations or equivalent amounts of vehicle were added. Twenty-four hours after the addition of the medicaments, neurite length of each neuron was measured for the medicament-added group and the no-addition group, and compared. The neurite length was evaluated according to the method of Neuman et al. (Neuman, H. R. et al., J. Neurosci., 22, pp. 854–862, 2002).

In assay [6] the test system is myosin regulatory light chain. Particulars: mesenteric artery, iris smooth muscle, astrocyte; cited from earlier work.

As for `Cl.NC(=O)CN1CCC(N2CCc3cncc4cccc2c34)CC1` [Example 20], the “improvement of constriction of respiratory tract (airway resistance value)” value (from here on “improvement”) in assay [1] and in assay [2] was “significantly improved the constriction of respiratory tract” throughout. The “intraocular pressure reducing action” value in the assay on intraocular pressure is on record as “significant intraocular pressure reducing action”. Also, the “pulmonary inflammation, total infiltrated leucocyte (WBC) number” value (from here on “pulmonary inflammation”) in assay [3] is listed as “significantly improved the pathological condition”. The “vasoconstriction inhibitory action (relaxation ratio)” value in assay [4] is on record as “significant vasoconstriction inhibitory action”. Further, in assay [5], the “neurite outgrowth (neurite length)” value was “significant neurite outgrowth axis extension”.

As for `Cl.NCCN[C@H]1CC[C@H](N2CCc3cncc4cccc2c34)CC1` [Example 24], the “improvement” value in assay [1] and in assay [2] was “significantly improved the constriction of respiratory tract” each time. In assay [3], the “pulmonary inflammation” value was “significantly improved the pathological condition”. The “vasoconstriction inhibitory action (relaxation ratio)” value in assay [4] was “significant vasoconstriction inhibitory action”. In addition, the “neurite outgrowth (neurite length)” value in assay [5] was “significant neurite outgrowth axis extension”.

For the compound `CC1CNCCN1S(=O)(=O)c1cccc2cnccc12` (centres unmarked) [Example H-7, 1-(5-isoquinolinesulfonyl)-2-methylpiperazine], in assay [6], the “inhibition of phosphorylation of the myosin regulatory light chain” value is listed as “inhibits phosphorylation of the myosin regulatory light chain”.

Take `Cl.O=C(O)CN1CCC(N2CCc3cncc4cccc2c34)CC1` [Example 17]: the “improvement” value in assay [1] and in assay [2] was “significantly improved the constriction of respiratory tract” throughout. Also, the “pulmonary inflammation” value in assay [3] is given as “significantly improved the pathological condition”. In addition, the “vasoconstriction inhibitory action (relaxation ratio)” value in assay [4] is recorded as “significant vasoconstriction inhibitory action”. For the same compound, the “neurite outgrowth (neurite length)” value in assay [5] is reported as “significant neurite outgrowth axis extension”.
